Assay results taken from ChEMBL document CHEMBL6109065, “Synthesis, antibacterial and anticancer activity of azo-based and aminomethylene derivatives of cyclic β-keto sulfones” (Bioorg Med Chem Lett, 2025).
Converted amounts (≈) assume the structure as drawn.

Legend:
[1] = Cytotoxicity against MAEC cells assessed as inhibition of cell growth at 0.5 mM relative to control; format: toxicity, cell-based; details: mouse
Pseudomonas aeruginosa = assay: Antibacterial activity against Pseudomonas aeruginosa assessed as reduction in bacterial growth; format: functional
Escherichia coli = assay: Antibacterial activity against Escherichia coli assessed as reduction in bacterial growth; format: functional
MDA-MB-231 [2] = assay: Cytotoxicity against human MDA-MB-231 cells assessed as inhibition of cell growth at 0.5 mM relative to control; format: functional
Staphylococcus aureus = assay: Antibacterial activity against Staphylococcus aureus assessed as reduction in bacterial growth; format: functional
MDA-MB-231 [3] = assay: Cytotoxicity against human MDA-MB-231 cells assessed as inhibition of cell viability; format: functional, cell-based
[4] = Cytotoxicity against MAEC cells assessed as cell viability; format: toxicity, cell-based; details: mouse

| Structure (SMILES) | inhibition at 500 µM [1] [%] | MIC (Pseudomonas aeruginosa) [µM] | MIC (Escherichia coli) [µM] | inhibition at 500 µM (MDA-MB-231 [2]) [%] | MIC (Staphylococcus aureus) [µM] | EC50 (MDA-MB-231 [3]) [µM] | EC50 [4] [µM] |
| --- | --- | --- | --- | --- | --- | --- | --- |
| NS(=O)(=O)c1ccc(N/N=C2\C(=O)C3(CCCC3)CS2(=O)=O)cc1 | 1 | 750 (≈ 279 µg/mL) | 188 (≈ 69.8 µg/mL) | 81 | 94 (≈ 34.9 µg/mL) |  |  |
| CC(C)(C)OC(=O)N1CC2(C1)CS(=O)(=O)/C(=N/Nc1cccc(S(N)(=O)=O)c1)C2=O | 6 | > 750 | 188 (≈ 86.2 µg/mL) | 63 | 188 (≈ 86.2 µg/mL) |  |  |
| O=C1/C(=C\NCc2ccccc2)S(=O)(=O)CC12CC2 | 17 | 750 (≈ 208 µg/mL) | 750 (≈ 208 µg/mL) | 90 | 750 (≈ 208 µg/mL) | 270 |  |
| CC1(C)CS(=O)(=O)/C(=N/Nc2ccc(S(N)(=O)=O)cc2)C1=O | 3 | 375 (≈ 130 µg/mL) | 188 (≈ 64.9 µg/mL) | 51 | 188 (≈ 64.9 µg/mL) |  |  |
| CC1(C)CS(=O)(=O)/C(=N/Nc2cccc(S(N)(=O)=O)c2)C1=O | 1 | > 750 | 188 (≈ 64.9 µg/mL) | 78 | 23 (≈ 7.94 µg/mL) |  |  |
| CC1(C)CS(=O)(=O)/C(=C/NCc2ccccc2)C1=O | 10 | 750 (≈ 210 µg/mL) | 750 (≈ 210 µg/mL) | 88 | 94 (≈ 26.3 µg/mL) | 283 |  |
| CC(C)(C)OC(=O)N1CCC2(CC1)CS(=O)(=O)/C(=N/Nc1ccc(S(N)(=O)=O)cc1)C2=O | 11 | > 750 | 750 (≈ 365 µg/mL) | 93 | 375 (≈ 182 µg/mL) | 249 |  |
| O=C1/C(=C\Nc2ccccc2)S(=O)(=O)CC12CC2 | 6 | 375 (≈ 98.7 µg/mL) | > 750 | 19 | > 750 |  |  |
| NS(=O)(=O)c1cccc(N/N=C2\C(=O)C3(CCCC3)CS2(=O)=O)c1 | 10 | > 750 | 188 (≈ 69.8 µg/mL) | 21 | 188 (≈ 69.8 µg/mL) |  |  |
| CC(C)(C)OC(=O)N1CC2(C1)CS(=O)(=O)/C(=N/Nc1ccc(S(N)(=O)=O)cc1)C2=O | 20 | 750 (≈ 344 µg/mL) | 188 (≈ 86.2 µg/mL) | 21 | 23 (≈ 10.5 µg/mL) |  |  |
| CC(C)(C)OC(=O)N1CCC2(CC1)CS(=O)(=O)/C(=N/Nc1cccc(S(N)(=O)=O)c1)C2=O | 7 | > 750 | 188 (≈ 91.5 µg/mL) | 37 | 375 (≈ 182 µg/mL) |  |  |
| Cc1ccc(N/N=C2\C(=O)C3(CCCC3)CS2(=O)=O)cc1 | 26 | 750 (≈ 230 µg/mL) | > 750 | 66 | > 750 |  |  |
| CC1(C)CS(=O)(=O)/C(=C/Nc2ccccc2)C1=O | 7 | 375 (≈ 99.5 µg/mL) | 188 (≈ 49.9 µg/mL) | 7 | 94 (≈ 24.9 µg/mL) |  |  |
| NS(=O)(=O)c1ccc(N/N=C2\C(=O)C3(CC3)CS2(=O)=O)cc1 | 1 | > 750 | 94 (≈ 32.3 µg/mL) | 4 | 188 (≈ 64.6 µg/mL) |  |  |
| CCC1(C)CCS(=O)(=O)/C(=N/Nc2ccc(S(N)(=O)=O)cc2)C1=O (stereo not given) | 100 | 750 (≈ 280 µg/mL) | 750 (≈ 280 µg/mL) | 57 | 375 (≈ 140 µg/mL) |  | 78 |
| Nc1cccc(S(N)(=O)=O)c1 | 100 | 750 (≈ 129 µg/mL) | 750 (≈ 129 µg/mL) | 30 | 375 (≈ 64.6 µg/mL) |  | 93 |
| Nc1ccc(S(N)(=O)=O)cc1 [SULFANILAMIDE] | 6 | 750 (≈ 129 µg/mL) | 375 (≈ 64.6 µg/mL) | 57 | 750 (≈ 129 µg/mL) |  |  |
